Measurements published in article PMC12374861, “Synthetic Peptides Suppress Nervous Necrosis Virus Absorption and Improve Survival Rates in European Sea Bass” (Marine Biotechnology (New York, N.y.), 2025).
Ends that are not written are not given here.

How the values were obtained:
E-11 cells = experiment: MTT cytotoxicity test on E-11 cells; assay type: cell-based; settings: 24 h at 25 °C, mean of n = 3, control = 100.0
Description: Synthetic peptides cytotoxicity on E − 11 cells was assessed using the MTT (Sigma) test with serial peptide dilutions (1000–4 µg/mL in L − 15 medium; n = 3; 24 h at 25 °C) as elsewhere (Cervera et al. [2024c]). Absorbance was measured at 570 nm (BMG Labtech); blanks lacked cells. Cell viability was calculated as the OD ratio of treated to untreated cells × 100, normalized at 690 nm.
Supplementary data S4: Cell viability (%) of E-11 cells after incubation with the synthetic peptides for 24 h. Data represent the mean ± SEM (n=3).

SJNNV = assay type: cell-based, striped jack nervous necrosis virus (strain SJNag97); settings: virus (MOI 0.01) incubated with 500 μg/mL peptide for 15 min at 25 °C, titrated in E-11 cells; control virus + PBS; representative of two independent assays; Fig. 2B
Description: (§1) Parental RGNNV (strain It/411/96), SJNNV (strain SJNag97), and reassortant isolates (RGNNV/SJNNV, 367.2.2005; SJNNV/RGNNV, 389/I96) were used. Viruses were propagated in E − 11 cells cultured in L-15 Leibovitz medium (BioWest) supplemented with 5% FBS, 2 mM L-glutamine, and 100 IU/mL penicillin/streptomycin (Thermo Fisher Scientific) at 25 °C. Infected monolayers were incubated at 25 °C until extensive cytopathic effect (CPE) developed. Supernatants were then harvested, centrifuged, and titrated in triplicate using the end-point dilution method, expressed as TCID₅₀/mL (Reed and Müench [1938]).
(§2) For in vitro antiviral assays, viral cultures (MOI 0.01) from parental and reassortant strains were incubated with peptides (single or combined) using a non-lethal concentration previously tested (500 μg/mL; León et al. [2020]), for 15 min at 25 °C with gentle agitation. Controls were virus samples incubated with PBS (100% viral activity). Treated samples were titrated as previously. After medium removal, cells were exposed to ten-fold viral dilutions in 2% FBS. CPE was monitored daily for 10 days, and viral titres were calculated as TCID₅₀/mL (Reed and Müench [1938]) and expressed as viral titre or percent inhibition relative to controls.
Fig. 2 Designed peptides, single or combined, reduce the NNV absorption in vitro. NNV parental or reassortant genotypes were incubated with 500 μg/mL of the synthetic peptides for 15 min. Then, the viruses were titrated in the E − 11 cell line. Control samples consisted on virus incubated with the same amount of phosphate buffer saline. (A) Viral titer (TCID50/mL) and (B) % of virus inhibition with respect to the controls are represented. Data are representative of two independent assays. […] Each bar was matched to a substance by its colour and by the order of the legend.

RGNNV [1] = experiment: RGNNV in vivo bath challenge of European sea bass with peptide injection after infection; design: species or system European sea bass (Dicentrarchus labrax); settings: for Relative percent survival (RPS): juvenile sea bass, bath infection 3.16 × 10^4 TCID₅₀ RGNNV/mL for 2 h, then intramuscular injection 1 µg peptide/g, 23 dpi, infected PBS group 63.6% survival; for RGNNV cp gene expression in the brain / RGNNV rdrp gene expression in the brain: qPCR relative to ef1a, 2 dpi, n = 6, 1 µg peptide/g i.m. after RGNNV bath challenge; for RGNNV cp gene expression in the brain: Fig. 5A; for RGNNV rdrp gene expression in the brain: Fig. 5B
Description: RGNNV In vivo Challenge of European Sea Bass
A total of 375 sea bass were randomly assigned to eight experimental groups (in duplicate) and acclimated for 15 days. Seven groups were infected by immersion (10 L; 3.16 × 10^4 TCID₅₀ RGNNV/mL; 2 h), while a mock-infected control received conditioned medium. […] Combinations were selected according to the results obtained in the competitive in vitro assay against RGNNV (see below). Disease signs and mortalities were monitored daily for 23 days post-infection (dpi) using a four-rank scale (Valero et al. [2021a]). Fish (n = 6/group/time-point) were sampled at 2 and 23 dpi, euthanized with clove oil, bled, and weighed. Brain, NNV target tissue, and head-kidney, major hematopoietic tissue in fish, were dissected, frozen in TRIzol (Life Technologies), and stored at − 80 °C.
For viral load analysis, total RNA was extracted from sea bass brain and head-kidney using TRIzol (Life Technologies) and from E − 11 cells using the GenJET RNA Purification Kit (Thermo Fisher Scientific), following manufacturer protocols. One microgram of RNA was DNAse I-treated (1 U/µL; Thermo Scientific), and cDNA was synthesized using Superscript IV Reverse Transcriptase (Invitrogen). qPCR was performed on a QuantStudio 5 Flex (Applied Biosystems) to quantify cp, rdrp and mx genes using PowerUp SYBR Green reagents (Applied Biosystems). The protocol included a 95 °C hold, then 40 cycles (95 °C; 15 s) and 60 °C for 1 min. Relative expression was calculated using the 2^⁻ΔCt method (Livak and Schmittgen [2001]), with ef1a as the endogenous control. Primers (Supplementary Data S2) were validated by melting curve analysis and negative controls.
Fish mortality was analysed using Kaplan–Meier survival curves with log-rank (Mantel–Cox) tests for significance. Relative gene expression was evaluated by one-way ANOVA (p ≤ 0.05) followed by Tukey’s test. Viral kinetics were compared between P4-treated and untreated groups using Student’s t-test (p ≤ 0.05) at specific time points. All analyses were performed with IBM SPSS Statistics 20.
Fig. 4 Therapeutic administration of synthetic peptides improves survival and symptomatology in […] (RGNNV)-infected European sea bass juveniles. […] A mock-infected group was treated twice with only PBS. (A) Kaplan–Meier survival curves; (B) Heat-map representing the cumulated number of fish showing clinical signs of VER disease attending to their severity: (1) changes of the color of the skin, slower rhythm of swimming and/or slower reaction to external stimuli as feeding; (2) alterations in the swimming balance and/or erratic swimming spasms; (3) continuous erratic swimming; and (4) complete incapacity to keep balance, swim and/or move without external stimuli. VER, viral encephalopathy and retinopathy
Fig. 5 Therapeutic administration of synthetic peptides decreased viral loads in the brain without additional mx gene regulation in the sea bass juveniles head-kidney infected with red-spotted grouper nervous necrosis virus (RGNNV). […] A mock-infected group was treated twice with only PBS. (A–C) Transcription levels of RGNNV cp (A) and rdrp (B) genes in the brain and (C) mx gene in the head-kidney. Data represent the relative gene expression mean ± SEM (n = 6). Different letters indicate significant differences among groups according to the ANOVA (p < 0.05)

RGNNV/SJNNV reassortant = experiment: In vitro antiviral (competition) assay: virus incubated with peptide, then titrated in E-11 cells; assay type: cell-based, RGNNV/SJNNV reassortant (367.2.2005); settings: virus (MOI 0.01) incubated with 500 μg/mL peptide for 15 min at 25 °C, control virus + PBS, representative of two independent assays, Fig. 2B
Description: as §1, §2
Fig. 2 Designed peptides, single or combined, reduce the NNV absorption in vitro. […]

RGNNV [2] = test system: RGNNV; design: method as in Zhu et al. [2022]; settings: RGNNV-infected hybrid grouper; ref Zhu et al. [2022]; cited from earlier work
Description: Given RGNNV’s rapid organ colonisation (Valero et al. [2018]), treatments were administered 2 h post-infection to ensure viral establishment.

NNV = settings: synthetic sea bass peptides, NNV infection; ref Cervera et al. [2024b], [2025]; cited from earlier work
Description: Since co-administered peptides disrupt RGNNV adsorption in vitro, we evaluated their therapeutic potential in vivo by administering them […]. […] Given RGNNV’s rapid organ colonisation (Valero et al. [2018]), treatments were administered 2 h post-infection to ensure viral establishment.

Compound | Viability (%) of E-11 cells, mean (E-11 cells; peptide 0.00411 mg/mL) | Viability (%) of E-11 cells, mean (E-11 cells; peptide 0.01234 mg/mL) | Viability (%) of E-11 cells, mean (E-11 cells; peptide 0.03704 mg/mL) | Viability (%) of E-11 cells, mean (E-11 cells; peptide 0.11111 mg/mL) | Viability (%) of E-11 cells, mean (E-11 cells; peptide 0.33333 mg/mL) | Viability (%) of E-11 cells, mean (E-11 cells; peptide 1.00000 mg/mL) | % of virus inhibition with respect to the controls, SJNNV (SJNNV) | Relative percent survival (RPS) (RGNNV [1]) | RGNNV cp gene expression in the brain (RGNNV [1]) | RGNNV rdrp gene expression in the brain (RGNNV [1]) | % of virus inhibition with respect to the controls, RGNNV/SJNNV (RGNNV/SJNNV reassortant) | Improvement of survival (RGNNV [2]) | Reduction of mortality (NNV)
PRLGHAARIFQRYA-NH2 [Peptide P3] | 89.4% | 93.2% | 96.3% | 89.8% | 90.9% | 101.7% | 90% | 62.5% | lowered | lowered | 96.84% |  | 
NC12CC3CC(CC(C3)C1)C2 [amantadine] |  |  |  |  |  |  |  |  |  |  |  | 44% | 
Hepcidin |  |  |  |  |  |  |  |  |  |  |  |  | 30–35%
VSKASTVTGFGR-NH2 [Peptide P2] | 103.1% | 121.8% | 111.5% | 106.2% | 126.9% | 117.2% | 90% | 43.8% | no transcriptional effect | no transcriptional effect | 96.84% |  | 
